Test results: patent US20220107328A1, “METHODS OF TREATING LIVER DISEASES” (Camp4 Therapeutics Corporation, priority 2018, published 2022)

The compounds below were run on COL1A1 mRNA (assay: qRT-PCR of COL1A1 mRNA in human primary hepatic stellate cells). Conditions: 3 μM, relative to GAPDH.
Assay type: cell-based
Method: Cells were plated at a density of 17000 cells/well in a 96-well plate and allowed to adhere overnight. The following day cell culture media was replenished with the indicated concentration(s) of compound for 18 hours. […] Medium was removed after 18 hours and cells were processed for further analysis, e.g. qRT-PCR.
Analysis of the fold changes in expression as measured by qRT-PCR were performed using the technique below. The control was DMSO, and the treatment was the selected compound (CPD). The internal control was GAPDH or B-Actin (or otherwise indicated), and the gene of interest is the target. First, the averages of the 4 conditions were calculated for normalization: DMSO:GAPDH, DMSO:Target, CPD: GAPDH, and CPD:Target. Next, the ΔCT of both control and treatment were calculated to normalize to internal control (GAPDH) using (DMSO:Target)−(DMSO:GAPDH)=ΔCT control and (CPD:Target)−(CPD: GAPDH)=ΔCT experimental. Then, the ΔΔCT was calculated by ΔCT experimental−ΔCT control.
Candidate compounds were tested in stellate cells for their ability to modulate PNPLA3 and COL1A1. Stellate cells were treated with serial dilutions of the compounds, ranging from 0.1 μM to 100 μM. Changes in PNPLA3 (or COL1A1) mRNA levels in stellate cells were analyzed with qRT-PCR.

Structure (SMILES) | Primary Stellate cells COL1A1 (fold change in mRNA expression)
C[C@H](Nc1ncnc2[nH]cnc12)c1cc2ccc(F)cc2nc1-c1ccccn1 [AMG319] | 0.99
CNC(=O)c1cccc(-c2ccc3c(N4CCOC[C@@H]4C)nc(N4CCOC[C@@H]4C)nc3n2)c1 [AZD2014] | 0.55
C[C@@H](Nc1cc(F)cc(F)c1)c1cc(C(=O)N(C)C)cc2c(=O)cc(N3CCOCC3)oc12 [AZD8186] | 1.22
C[C@H](Nc1ncnc2[nH]cnc12)c1nc2ccc(F)cc2c(=O)n1-c1ccccc1 [Acalisib] | 0.96
Cc1c(CN2CCN(C(=O)[C@H](C)O)CC2)sc2c(N3CCOCC3)nc(-c3cnc(N)nc3)nc12 [Apitolisib (GDC-0980, RG7422)] | 0.54
Cc1nc(NC(=O)N2CCC[C@H]2C(N)=O)sc1-c1ccnc(C(C)(C)C(F)(F)F)c1 [BYL-719] | 1.24
Nc1cc(C(F)(F)F)c(-c2cc(N3CCOCC3)nc(N3CCOCC3)n2)cn1 [Buparlisib (BKN120, NVE-BKM120)] | 0.81
CO[C@H]1CC[C@H](N2C(=O)CNc3ncc(-c4ccc(C(C)(C)O)nc4)nc32)CC1 [CC-223] | 0.50
COc1ccc(-c2nc(N3CCOCC3)c3sc(CN(C)c4ncc(C(=O)NO)cn4)cc3n2)cn1 [CUDC-907] | 0.41
O=C1OC(COc2ccccc2[N+](=O)[O-])CC1Cc1ccccc1 (centres unmarked) [Compound 3BDO] | 1.03

Each compound was assayed on PNPLA3 mRNA (assay: qRT-PCR of PNPLA3 mRNA in human primary hepatic stellate cells). Conditions: 3 μM, relative to GAPDH.
Assay type: cell-based

Structure (SMILES) | Primary Stellate cells PNPLA3 (fold change in mRNA expression)
C[C@H](Nc1ncnc2[nH]cnc12)c1cc2ccc(F)cc2nc1-c1ccccn1 [AMG319] | 0.99
CNC(=O)c1cccc(-c2ccc3c(N4CCOC[C@@H]4C)nc(N4CCOC[C@@H]4C)nc3n2)c1 [AZD2014] | 0.56
C[C@@H](Nc1cc(F)cc(F)c1)c1cc(C(=O)N(C)C)cc2c(=O)cc(N3CCOCC3)oc12 [AZD8186] | 0.86
C[C@H](Nc1ncnc2[nH]cnc12)c1nc2ccc(F)cc2c(=O)n1-c1ccccc1 [Acalisib] | 0.91
Cc1c(CN2CCN(C(=O)[C@H](C)O)CC2)sc2c(N3CCOCC3)nc(-c3cnc(N)nc3)nc12 [Apitolisib (GDC-0980, RG7422)] | 0.56
Cc1nc(NC(=O)N2CCC[C@H]2C(N)=O)sc1-c1ccnc(C(C)(C)C(F)(F)F)c1 [BYL-719] | 0.70
Nc1cc(C(F)(F)F)c(-c2cc(N3CCOCC3)nc(N3CCOCC3)n2)cn1 [Buparlisib (BKN120, NVE-BKM120)] | 0.50
CO[C@H]1CC[C@H](N2C(=O)CNc3ncc(-c4ccc(C(C)(C)O)nc4)nc32)CC1 [CC-223] | 0.33
COc1ccc(-c2nc(N3CCOCC3)c3sc(CN(C)c4ncc(C(=O)NO)cn4)cc3n2)cn1 [CUDC-907] | 1.33
O=C1OC(COc2ccccc2[N+](=O)[O-])CC1Cc1ccccc1 (centres unmarked) [Compound 3BDO] | 0.91

What follows are compounds tested on PCSK9 mRNA (assay: qRT-PCR of PCSK9 mRNA in primary hepatocytes). Conditions: donor 4178, 3 μM, relative to GUSB.
Assay type: cell-based, human

Structure (SMILES) | Primary Hepatocytes 4178 PCSK9 (fold change in mRNA expression)
C[C@H](Nc1ncnc2[nH]cnc12)c1cc2ccc(F)cc2nc1-c1ccccn1 [AMG319] | 0.74
CNC(=O)c1cccc(-c2ccc3c(N4CCOC[C@@H]4C)nc(N4CCOC[C@@H]4C)nc3n2)c1 [AZD2014] | 0.36
C[C@@H](Nc1cc(F)cc(F)c1)c1cc(C(=O)N(C)C)cc2c(=O)cc(N3CCOCC3)oc12 [AZD8186] | 0.70
C[C@H](Nc1ncnc2[nH]cnc12)c1nc2ccc(F)cc2c(=O)n1-c1ccccc1 [Acalisib] | 0.99
Cc1c(CN2CCN(C(=O)[C@H](C)O)CC2)sc2c(N3CCOCC3)nc(-c3cnc(N)nc3)nc12 [Apitolisib (GDC-0980, RG7422)] | 0.31
Cc1nc(NC(=O)N2CCC[C@H]2C(N)=O)sc1-c1ccnc(C(C)(C)C(F)(F)F)c1 [BYL-719] | 0.71
Nc1cc(C(F)(F)F)c(-c2cc(N3CCOCC3)nc(N3CCOCC3)n2)cn1 [Buparlisib (BKN120, NVE-BKM120)] | 0.46
CO[C@H]1CC[C@H](N2C(=O)CNc3ncc(-c4ccc(C(C)(C)O)nc4)nc32)CC1 [CC-223] | 0.72
COc1ccc(-c2nc(N3CCOCC3)c3sc(CN(C)c4ncc(C(=O)NO)cn4)cc3n2)cn1 [CUDC-907] | 0.83
O=C1OC(COc2ccccc2[N+](=O)[O-])CC1Cc1ccccc1 (centres unmarked) [Compound 3BDO] | 1.01

The compounds below were run on PNPLA3 mRNA (assay: qRT-PCR of PNPLA3 mRNA in compound-treated primary human hepatocytes). Conditions: donor 4178, 3 μM, relative to GUSB.

Structure (SMILES) | Primary Hepatocytes 4178 PNPLA3 (fold change in mRNA expression)
C[C@H](Nc1ncnc2[nH]cnc12)c1cc2ccc(F)cc2nc1-c1ccccn1 [AMG319] | 0.73
CNC(=O)c1cccc(-c2ccc3c(N4CCOC[C@@H]4C)nc(N4CCOC[C@@H]4C)nc3n2)c1 [AZD2014] | 0.43
C[C@@H](Nc1cc(F)cc(F)c1)c1cc(C(=O)N(C)C)cc2c(=O)cc(N3CCOCC3)oc12 [AZD8186] | 0.80
C[C@H](Nc1ncnc2[nH]cnc12)c1nc2ccc(F)cc2c(=O)n1-c1ccccc1 [Acalisib] | 1.00
Cc1c(CN2CCN(C(=O)[C@H](C)O)CC2)sc2c(N3CCOCC3)nc(-c3cnc(N)nc3)nc12 [Apitolisib (GDC-0980, RG7422)] | 0.32
Cc1nc(NC(=O)N2CCC[C@H]2C(N)=O)sc1-c1ccnc(C(C)(C)C(F)(F)F)c1 [BYL-719] | 0.69
Nc1cc(C(F)(F)F)c(-c2cc(N3CCOCC3)nc(N3CCOCC3)n2)cn1 [Buparlisib (BKN120, NVE-BKM120)] | 0.52
CO[C@H]1CC[C@H](N2C(=O)CNc3ncc(-c4ccc(C(C)(C)O)nc4)nc32)CC1 [CC-223] | 0.51
COc1ccc(-c2nc(N3CCOCC3)c3sc(CN(C)c4ncc(C(=O)NO)cn4)cc3n2)cn1 [CUDC-907] | 0.50
O=C1OC(COc2ccccc2[N+](=O)[O-])CC1Cc1ccccc1 (centres unmarked) [Compound 3BDO] | 1.10

Same assay, conditions: donor 4282, 3 μM, relative to GUSB

Structure (SMILES) | Primary Hepatocytes 4282 PNPLA3 (fold change in mRNA expression)
C[C@H](Nc1ncnc2[nH]cnc12)c1cc2ccc(F)cc2nc1-c1ccccn1 [AMG319] | 0.85
CNC(=O)c1cccc(-c2ccc3c(N4CCOC[C@@H]4C)nc(N4CCOC[C@@H]4C)nc3n2)c1 [AZD2014] | 0.80
C[C@@H](Nc1cc(F)cc(F)c1)c1cc(C(=O)N(C)C)cc2c(=O)cc(N3CCOCC3)oc12 [AZD8186] | 0.80
C[C@H](Nc1ncnc2[nH]cnc12)c1nc2ccc(F)cc2c(=O)n1-c1ccccc1 [Acalisib] | 1.00
Cc1c(CN2CCN(C(=O)[C@H](C)O)CC2)sc2c(N3CCOCC3)nc(-c3cnc(N)nc3)nc12 [Apitolisib (GDC-0980, RG7422)] | 0.46
Cc1nc(NC(=O)N2CCC[C@H]2C(N)=O)sc1-c1ccnc(C(C)(C)C(F)(F)F)c1 [BYL-719] | 0.60
Nc1cc(C(F)(F)F)c(-c2cc(N3CCOCC3)nc(N3CCOCC3)n2)cn1 [Buparlisib (BKN120, NVE-BKM120)] | 0.60
CO[C@H]1CC[C@H](N2C(=O)CNc3ncc(-c4ccc(C(C)(C)O)nc4)nc32)CC1 [CC-223] | 0.80
COc1ccc(-c2nc(N3CCOCC3)c3sc(CN(C)c4ncc(C(=O)NO)cn4)cc3n2)cn1 [CUDC-907] | 0.50
O=C1OC(COc2ccccc2[N+](=O)[O-])CC1Cc1ccccc1 (centres unmarked) [Compound 3BDO] | 1.00
